# Assay results: patent US20100267561A1, “HERBICIDAL PYRIDAZINONE DERIVATIVES” (priority 2007, published 2010)
# What was measured:
# Type in all cases: in vivo
# [1] = test system: Russian thistle (Salsola iberica); assay: Test B pre-/postemergence plant response; details: Preemergence; for Russian Thistle plant response rating: scale 0 to 100
# Outline: (§1)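 Visual scoring from 0 (no effect) to 100 (complete control) against untreated controls was done 13 to 15 days after greenhouse treatment. Chemicals were formulated in a surfactant-containing non-phytotoxic solvent and applied to soil preemergence or to 1- to 4-leaf (2-18 cm) plants postemergence.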
# [2] = test system: common (oilseed) sunflower (Helianthus annuus); assay: Test B pre-/postemergence plant response; details: Preemergence; for Sunflower plant response rating: scale 0 to 100
# Outline: as §1
# [3] = test system: downy bromegrass (Bromus tectorum); assay: Test B pre-/postemergence plant response; details: for Bromegrass, Downy plant response rating: 8 g ai/ha
# Outline: as §1
# [4] = test system: eastern black (E.B.) nightshade (Solanum ptycanthum); assay: Test B pre-/postemergence plant response; details: Preemergence; for Nightshade, E. B. plant response rating: scale 0 to 100
# Outline: as §1
# [5] = test system: giant foxtail (Setaria faberii); assay: Test B pre-/postemergence plant response
# Outline: as §1
# [6] = test system: goosegrass (Eleusine indica); assay: Test B pre-/postemergence plant response
# Outline: as §1
# [7] = test system: morningglory (Ipomoea coccinea); assay: Test B pre-/postemergence plant response
# Outline: as §1
# soybean (Glycine max) = assay: Test B pre-/postemergence plant response
# Outline: as §1
# [8] = test system: surinam grass (Brachiaria decumbens); assay: Test B pre-/postemergence plant response
# Outline: as §1
# [9] = test system: wheat (Triticum aestivum); assay: Test B pre-/postemergence plant response
# Outline: as §1
# [10] = test system: barnyardgrass (Echinochloa crus-galli); assay: Test B flooded paddy test plant response
# Outline: (§2)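 2-leaf plants; pots flooded 3 cm above soil; compound added to paddy water; depth maintained. Greenhouse 13–15 d. Visual rating vs controls, 0 (no effect) to 100 (complete control); dash = no result.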
# [11] = test system: ducksalad (Heteranthera limosa); assay: Test B flooded paddy test plant response
# Outline: as §2
# rice (Oryza sativa) = assay: Test B flooded paddy test plant response
# Outline: as §2
# [12] = test system: umbrella sedge (Cyperus difformis); assay: Test B flooded paddy test plant response
# Outline: as §2
# [13] = 31 g ai/ha, scale 0 to 100 (0 no effect, 100 complete control)
# [14] = 62 g ai/ha, 0 to 100 scale, 0 no effect, 100 complete control
# [15] = Postemergence, 16 g ai/ha, scale 0 to 100
# [16] = Postemergence, 31 g ai/ha, scale 0 to 100
# [17] = Postemergence, 62 g ai/ha, scale 0 to 100, 0 no effect, 100 complete control
# [18] = Preemergence, 31 g ai/ha, scale 0 to 100 (0 no effect, 100 complete control)
# [19] = Preemergence, 62 g ai/ha, 0 to 100 scale, 0 no effect, 100 complete control
# [20] = 8 g ai/ha, postemergence, 0-100 scale
# [21] = Preemergence, 8 g ai/ha, scale 0 to 100
# [22] = Preemergence, 16 g ai/ha, scale 0 to 100
# [23] = 16 g ai/ha, postemergence, 0-100 scale
# [24] = Flood (flooded paddy test), 62 g ai/ha, scale 0 to 100, 0 no effect, 100 complete control
# [25] = Flood (flooded paddy test), 125 g ai/ha, scale 0 to 100, 0 no effect, 100 complete control
# [26] = Flood (flooded paddy test), 250 g ai/ha, scale 0 to 100, 0 no effect, 100 complete control
# [27] = Flood, 31 g ai/ha, scale 0 to 100
smiles,measurement,setting,value
CCCc1cc(-c2ccc(C(F)(F)F)cc2)nn1-c1c(O)cnn(C)c1=O [Compound 72],"Plant response rating, Russian Thistle",[1]; [13],0
same,"Plant response rating, Russian Thistle",[1]; [14],0
same,Russian Thistle plant response rating,[1]; 8 g ai/ha,0
same,Russian Thistle plant response rating,[1]; 16 g ai/ha,0
same,"Plant response rating, Sunflower",[2]; [13],0
same,"Plant response rating, Sunflower",[2]; [14],0
same,Sunflower plant response rating,[2]; 8 g ai/ha,0
same,Sunflower plant response rating,[2]; 16 g ai/ha,0
same,"Bromegrass, Downy plant response rating","[3]; postemergence, 0-100 scale",20
same,"Plant response rating, Bromegrass, Downy",[3]; [15],30
same,"Plant response rating, Bromegrass, Downy",[3]; [16],30
same,"Plant response rating, Bromegrass, Downy",[3]; [17],30
same,"Plant response rating, Bromegrass, Downy","[3]; Preemergence, 16 g ai/ha, scale 0 to 100 (0 no effect, 100 complete control)",30
same,"Plant response rating, Bromegrass, Downy",[3]; [18],50
same,"Plant response rating, Bromegrass, Downy",[3]; [19],95
same,"Bromegrass, Downy plant response rating","[3]; Preemergence, scale 0 to 100",0
same,"Plant response rating, Nightshade, E. B.",[4]; [13],0
same,"Plant response rating, Nightshade, E. B.",[4]; [14],30
same,"Nightshade, E. B. plant response rating",[4]; 8 g ai/ha,0
same,"Nightshade, E. B. plant response rating",[4]; 16 g ai/ha,0
same,"Foxtail, Giant plant response rating",[5]; [20],95
same,"Plant response rating, Foxtail, Giant",[5]; [15],100
same,"Plant response rating, Foxtail, Giant",[5]; [16],100
same,"Plant response rating, Foxtail, Giant",[5]; [17],100
same,"Plant response rating, Foxtail, Giant",[5]; [18],100
same,"Plant response rating, Foxtail, Giant",[5]; [19],100
same,"Foxtail, Giant plant response rating",[5]; [21],70
same,"Foxtail, Giant plant response rating",[5]; [22],85
same,Goosegrass plant response rating,[6]; [20],30
same,Goosegrass plant response rating,[6]; [23],30
same,"Plant response rating, Goosegrass",[6]; [16],35
same,"Plant response rating, Goosegrass",[6]; [17],35
same,"Plant response rating, Goosegrass",[6]; [18],95
same,"Plant response rating, Goosegrass",[6]; [19],100
same,Goosegrass plant response rating,[6]; [21],95
same,Goosegrass plant response rating,[6]; [22],95
same,Morningglory plant response rating,[7]; [20],0
same,Morningglory plant response rating,[7]; [23],0
same,"Plant response rating, Morningglory",[7]; [16],0
same,"Plant response rating, Morningglory",[7]; [17],0
same,"Plant response rating, Morningglory",[7]; [18],0
same,"Plant response rating, Morningglory",[7]; [19],0
same,Morningglory plant response rating,[7]; [21],0
same,Morningglory plant response rating,[7]; [22],0
same,Soybean plant response rating,soybean (Glycine max); [20],0
same,Soybean plant response rating,soybean (Glycine max); [23],0
same,"Plant response rating, Soybean",soybean (Glycine max); [16],0
same,"Plant response rating, Soybean",soybean (Glycine max); [17],0
same,"Plant response rating, Soybean",soybean (Glycine max); [18],0
same,"Plant response rating, Soybean",soybean (Glycine max); [19],0
same,Soybean plant response rating,soybean (Glycine max); [21],0
same,Soybean plant response rating,soybean (Glycine max); [22],0
same,Surinam Grass plant response rating,[8]; [20],95
same,Surinam Grass plant response rating,[8]; [23],95
same,"Plant response rating, Surinam Grass",[8]; [16],98
same,"Plant response rating, Surinam Grass",[8]; [17],100
same,"Plant response rating, Surinam Grass",[8]; [18],85
same,"Plant response rating, Surinam Grass",[8]; [19],100
same,Surinam Grass plant response rating,[8]; [22],85
same,Wheat plant response rating,[9]; [20],85
same,Wheat plant response rating,[9]; [23],85
same,"Plant response rating, Wheat",[9]; [16],85
same,"Plant response rating, Wheat",[9]; [17],95
same,"Plant response rating, Wheat",[9]; [18],80
same,"Plant response rating, Wheat",[9]; [19],90
same,Wheat plant response rating,[9]; [22],35
same,"Plant response rating, Barnyardgrass",[10]; [24],20
same,"Plant response rating, Barnyardgrass",[10]; [25],40
same,"Plant response rating, Barnyardgrass",[10]; [26],70
same,"Plant response rating, Barnyardgrass",[10]; [27],0
same,"Plant response rating, Ducksalad",[11]; [24],0
same,"Plant response rating, Ducksalad",[11]; [25],0
same,"Plant response rating, Ducksalad",[11]; [26],40
same,"Plant response rating, Ducksalad",[11]; [27],0
same,"Plant response rating, Rice",rice (Oryza sativa); [24],15
same,"Plant response rating, Rice",rice (Oryza sativa); [25],45
same,"Plant response rating, Rice",rice (Oryza sativa); [26],65
same,"Plant response rating, Rice",rice (Oryza sativa); [27],10
same,"Plant response rating, Sedge, Umbrella",[12]; [24],0
same,"Plant response rating, Sedge, Umbrella",[12]; [25],60
same,"Plant response rating, Sedge, Umbrella",[12]; [26],65
same,"Plant response rating, Sedge, Umbrella",[12]; [27],0
